Experimental data from article PMC3068151 (PLoS ONE, 2011).

What was measured:
[1] = biological target: T1, EphA2-ephrinA1 binding (Mus musculus, UniProt Q03145); experiment: ELISA EphA2-ephrinA1 binding (displacement and saturation)
T1 construct: we immobilized EphA2-Fc- ectodomain on proper ELISA plates; purchased R&D systems 639-A2 (EphA2-Fc); BT602 (biotinylated ephrinA1-Fc)
Experimental: (§1) Our chemical collection (Table S1) was stocked in a 20 mM dimethyl sulfoxide (DMSO) solution and we performed binding assay at a concentration of 200 µM. Only compounds displacing more than 40% ephrinA1 from EphA2 receptor were considered for a full concentration-binding curve. […] The day after wells were washed three times with washing buffer (PBS +0.05% tween20, pH 7.5) and blocked with 300 µl of blocking solution (PBS +0.5% BSA) for 1 hour at 37°C. Compounds were added to the wells at proper concentration in 1% dimethyl sulfoxide (DMSO) and incubated at 37°C for 1 hour. Biotinylated ephrinA1-Fc (R&D BT602) was added at 37°C for 4 hours at 30 ng/ml in displacement assays or in a range from 1 to 2000 ng/ml in saturation studies. […] The reaction was stopped with 3N HCl 100 µl/well and the absorbance was measured using an ELISA plate reader (Sunrise, TECAN, Switzerland) at 450 nm.
The IC50 value was determined using one-site competition non-linear regression and Kd values of the curves with or without antagonists were calculated using one-binding site non-linear regression analysis with Prism software (GraphPad Software Inc.). The Ki was obtained using Schild plot where Log[DR-1] is a function of the negative Log10 of the inhibitor concentration. The Hill's coefficient was calculated using linear fitting to evaluate whether the inhibition was competitive or uncompetitive.
To identify compounds interfering with EphA2-ephrinA1 binding we immobilized EphA2-Fc- ectodomain on proper ELISA plates and binding of biotinylated-ephrin-A1-Fc was detected using the colorimetric reaction developed by streptavidine-HRP and tetramethylbenzidine.

[2] = tested on: EphA kinases; experiment: ELISA displacement of biotinylated ephrinA1-Fc from immobilized EphA-Fc ectodomains; type: binding; settings: biotinylated ephrinA1-Fc at KD concentration
Experimental: as §1
Data are the means of at least three independent experiments ± st. err.

[3] = tested on: PC3 cells; experiment: PC3 cell binding / adhesion assay (MTT readout); type: cell-based, human
Experimental: 96 well ELISA high binding plates were incubated overnight at 4°C with ephrinA1-Fc 1 µg/cm^2, 100 µl per well. The plates were washed three times with PBS and blocked for 1 hour with BSA 1%. Cells were treated with proper concentration of substance or DMSO 0.5% for 30 minutes in vials on a shaker. After that, plates were washed with PBS and incubated with 100 µl 5×10^5 cells/ml for 1 hour at 37°C. Finally, plates were washed with PBS and adhering cells were quantified using MTT colorimetric assay.
96-wells plates for cell culture were untretaed (A) or coated with 1 µg/cm^2 ephrinA1-Fc (B) overnight. PC3 cells were treated with the indicated compounds for 30 minutes in a tube and let to adhere for 60 minutes on the wells. Cell adhesion is reported normalizing adhesion of Fc to 100%. […] Data are the means of at least three independent experiment ± st. err. One-way ANOVA followed by Dunnet's post test was performed comparing Fc to all other column. No significant differences were detected for data in graph A. *, p<0.05, **,p<0.01.

[4] = biological target: EphA2 (Homo sapiens, UniProt P29317); settings: up to 100 µM
Sequence of EphA2 (P29317 24-976): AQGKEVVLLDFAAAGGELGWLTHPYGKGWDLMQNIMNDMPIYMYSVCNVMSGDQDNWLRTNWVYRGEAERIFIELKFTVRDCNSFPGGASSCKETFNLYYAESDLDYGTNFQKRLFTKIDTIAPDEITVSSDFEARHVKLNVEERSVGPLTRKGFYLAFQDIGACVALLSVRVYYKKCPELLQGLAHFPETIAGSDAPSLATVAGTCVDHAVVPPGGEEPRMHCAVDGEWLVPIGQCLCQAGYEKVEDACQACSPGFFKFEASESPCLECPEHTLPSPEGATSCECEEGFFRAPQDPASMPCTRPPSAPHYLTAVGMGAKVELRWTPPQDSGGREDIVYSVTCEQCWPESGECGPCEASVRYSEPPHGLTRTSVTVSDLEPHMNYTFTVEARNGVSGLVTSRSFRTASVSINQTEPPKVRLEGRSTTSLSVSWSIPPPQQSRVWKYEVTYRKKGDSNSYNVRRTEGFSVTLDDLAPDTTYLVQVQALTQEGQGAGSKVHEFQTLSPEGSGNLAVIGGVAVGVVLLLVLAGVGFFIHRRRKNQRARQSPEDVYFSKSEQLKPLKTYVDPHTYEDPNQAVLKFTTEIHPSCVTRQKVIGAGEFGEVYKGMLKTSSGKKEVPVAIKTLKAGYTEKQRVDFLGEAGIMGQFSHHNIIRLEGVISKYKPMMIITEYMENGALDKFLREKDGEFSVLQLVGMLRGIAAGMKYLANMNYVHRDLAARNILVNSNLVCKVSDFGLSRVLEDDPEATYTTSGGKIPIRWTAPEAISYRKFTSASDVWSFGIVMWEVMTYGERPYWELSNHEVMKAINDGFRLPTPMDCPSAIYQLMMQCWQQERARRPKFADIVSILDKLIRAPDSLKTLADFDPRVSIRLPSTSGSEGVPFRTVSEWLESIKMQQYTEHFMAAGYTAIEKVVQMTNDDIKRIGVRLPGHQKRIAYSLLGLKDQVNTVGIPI
Experimental: Recombinant human EphA2 enzyme activity was evaluated with LANCE® method using ATP and Ulight-TK peptide as substrate (http://las.perkinelmer.com/).

[5] = biological target: EGFR (Homo sapiens, UniProt P00533); experiment: Phosphorylated-EGFR sandwich ELISA in PC3 cells; type: cell-based; settings: 100 µM, 30 ng/ml EGF
Sequence of EGFR (P00533 25-1210): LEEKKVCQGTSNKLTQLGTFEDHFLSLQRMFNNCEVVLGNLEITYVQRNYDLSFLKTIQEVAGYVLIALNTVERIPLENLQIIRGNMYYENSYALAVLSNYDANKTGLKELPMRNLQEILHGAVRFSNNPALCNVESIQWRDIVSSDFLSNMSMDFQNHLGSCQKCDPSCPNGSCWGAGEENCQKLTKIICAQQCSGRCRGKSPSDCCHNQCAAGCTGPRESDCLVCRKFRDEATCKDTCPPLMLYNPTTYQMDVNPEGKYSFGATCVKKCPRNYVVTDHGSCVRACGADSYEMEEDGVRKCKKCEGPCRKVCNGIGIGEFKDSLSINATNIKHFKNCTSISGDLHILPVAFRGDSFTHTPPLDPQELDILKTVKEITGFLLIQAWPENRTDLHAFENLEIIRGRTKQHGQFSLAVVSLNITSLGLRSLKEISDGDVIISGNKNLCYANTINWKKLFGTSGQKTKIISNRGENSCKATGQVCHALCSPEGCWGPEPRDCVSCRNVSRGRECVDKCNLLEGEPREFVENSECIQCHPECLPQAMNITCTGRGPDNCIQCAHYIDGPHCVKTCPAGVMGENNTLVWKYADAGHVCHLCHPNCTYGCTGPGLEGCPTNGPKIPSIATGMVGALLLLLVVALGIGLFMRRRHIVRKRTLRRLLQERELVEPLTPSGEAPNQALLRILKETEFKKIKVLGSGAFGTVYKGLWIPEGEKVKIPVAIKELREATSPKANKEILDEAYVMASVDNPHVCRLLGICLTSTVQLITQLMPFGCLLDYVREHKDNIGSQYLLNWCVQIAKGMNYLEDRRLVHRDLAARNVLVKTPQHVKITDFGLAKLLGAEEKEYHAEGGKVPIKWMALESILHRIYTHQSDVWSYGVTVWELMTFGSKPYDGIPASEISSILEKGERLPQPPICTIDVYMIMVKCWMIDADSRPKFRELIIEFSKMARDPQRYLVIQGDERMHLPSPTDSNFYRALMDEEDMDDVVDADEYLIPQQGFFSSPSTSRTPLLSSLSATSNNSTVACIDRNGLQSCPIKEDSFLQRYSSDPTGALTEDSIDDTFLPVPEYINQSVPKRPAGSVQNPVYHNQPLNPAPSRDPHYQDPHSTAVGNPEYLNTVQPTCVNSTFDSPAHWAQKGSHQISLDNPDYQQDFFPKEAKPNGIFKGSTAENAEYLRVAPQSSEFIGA
Experimental: Cells were seeded in 12-well plates at concentration of 10^5cells/ml in complete medium until they reached ∼40% confluence and serum starved overnight. The day after cells were treated with compounds under study, vehicle or standard drug, stimulated with the proper agonist, rinsed with sterile PBS and solubilized in lysis buffer. The lysates were resuspended and rocked at 4°C for 30 minutes and then centrifuged at 14000 xg for 5 minutes. The protein content of supernatant was measured with BCA protein assay kit (Thermo scientific), standardized to 200 µg/ml and transferred into a clean test tube ready to be used.
EphA2-, EphB4- and EGFR-phosphorylation were measured in cell lysates using DuoSet®IC Sandwich ELISA (RnD Systems, #DYC4056, #DYC4057 and #DYC1095, respectively) following manufacturer's protocol. […] The day after wells were washed and blocked for 1 hour at room temperature. After that, wells were washed and 100 µl/well of lysates were added at room temperature for 2 hours; wells were washed and incubated with Detection Antibody at room temperature for 2 hours.
(§2) A, B) EGFR phosphorylation was induced by 30 ng/ml and 10 ng/ml EGF on PC3 (A) and HT29 (B) cells, respectively. […] Data are the means of two experiments ± st. err.

[6] = biological target: T2, IGFR1β (Homo sapiens, UniProt P08069); experiment: IGFR1β activity, alpha Technology; type: cell-based; settings: 100 µM, 5 nM IGF1
T2 construct: in HepG2 or A431 cells, respectively; endogenous in cells; host or cells: A431 according to b24; HepG2 according to the order in the legend b55
T2 sequence (P08069 741-1367 limits assumed): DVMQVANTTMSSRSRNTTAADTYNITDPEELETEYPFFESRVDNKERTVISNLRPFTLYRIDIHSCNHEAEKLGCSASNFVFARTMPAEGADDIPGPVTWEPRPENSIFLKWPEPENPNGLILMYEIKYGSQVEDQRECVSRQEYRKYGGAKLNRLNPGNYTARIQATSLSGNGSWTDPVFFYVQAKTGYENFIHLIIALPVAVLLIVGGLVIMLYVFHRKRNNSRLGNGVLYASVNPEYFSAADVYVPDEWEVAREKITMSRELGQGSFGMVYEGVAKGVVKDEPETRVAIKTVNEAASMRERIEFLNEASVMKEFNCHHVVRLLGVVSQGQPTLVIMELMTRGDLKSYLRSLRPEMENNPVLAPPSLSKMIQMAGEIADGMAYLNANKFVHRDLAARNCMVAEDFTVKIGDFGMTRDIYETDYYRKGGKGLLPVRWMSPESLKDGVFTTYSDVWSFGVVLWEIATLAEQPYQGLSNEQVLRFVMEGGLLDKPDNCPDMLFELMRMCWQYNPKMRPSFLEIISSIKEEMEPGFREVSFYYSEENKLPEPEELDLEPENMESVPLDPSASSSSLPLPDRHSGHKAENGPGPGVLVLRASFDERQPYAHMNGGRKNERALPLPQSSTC
T2 sequence (P08069 31-736 partner limits assumed): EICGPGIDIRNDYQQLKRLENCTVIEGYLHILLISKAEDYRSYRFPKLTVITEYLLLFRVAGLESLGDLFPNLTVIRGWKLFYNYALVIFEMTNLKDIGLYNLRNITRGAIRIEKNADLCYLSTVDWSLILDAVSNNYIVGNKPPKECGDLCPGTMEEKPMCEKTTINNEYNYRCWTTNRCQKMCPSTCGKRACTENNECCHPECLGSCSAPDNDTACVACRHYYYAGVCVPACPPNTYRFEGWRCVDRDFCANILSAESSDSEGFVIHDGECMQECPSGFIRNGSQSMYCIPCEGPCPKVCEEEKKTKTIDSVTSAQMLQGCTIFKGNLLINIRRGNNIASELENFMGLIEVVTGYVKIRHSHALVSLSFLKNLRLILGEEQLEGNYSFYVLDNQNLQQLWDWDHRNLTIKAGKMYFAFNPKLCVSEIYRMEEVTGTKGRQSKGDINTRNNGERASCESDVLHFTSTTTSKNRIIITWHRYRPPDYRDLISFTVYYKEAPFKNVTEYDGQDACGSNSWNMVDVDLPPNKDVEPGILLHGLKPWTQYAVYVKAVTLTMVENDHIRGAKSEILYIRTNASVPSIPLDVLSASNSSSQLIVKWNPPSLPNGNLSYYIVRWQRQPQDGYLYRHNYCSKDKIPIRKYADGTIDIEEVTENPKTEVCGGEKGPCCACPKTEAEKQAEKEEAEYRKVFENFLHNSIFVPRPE
Experimental: Cells were stimulated with 5 nM IGF1 or 100 nM insulin for 10 minutes, lysed and a fluorescence acceptor (alphaLISA protein A beads coated with anti-phospho-IRKβ or -IGFR1β) added for 2 hours. A fluorescence donor (streptavidin coupled-beads) coated with an antibody towards IRKβ or IGFR1β was incubated for 2 hours and the signal was measured at λex = 680 nm and λem = 500 nm and 600 nm using a microplate reader (EnVision, Perkin Elmer, Waltham, MA, USA).
These assays were performed at CEREP (Celle L'Evescault, France).
as §2

[7] = biological target: T1, EphA2-ephrinA1 binding; experiment: ELISA EphA2-ephrinA1 binding (displacement and saturation); settings: 200 µM for 1 hour, some wells washed before adding 50 ng/ml ephrinA1-Fc

T1 sequence (Q03145 26-538 limits assumed): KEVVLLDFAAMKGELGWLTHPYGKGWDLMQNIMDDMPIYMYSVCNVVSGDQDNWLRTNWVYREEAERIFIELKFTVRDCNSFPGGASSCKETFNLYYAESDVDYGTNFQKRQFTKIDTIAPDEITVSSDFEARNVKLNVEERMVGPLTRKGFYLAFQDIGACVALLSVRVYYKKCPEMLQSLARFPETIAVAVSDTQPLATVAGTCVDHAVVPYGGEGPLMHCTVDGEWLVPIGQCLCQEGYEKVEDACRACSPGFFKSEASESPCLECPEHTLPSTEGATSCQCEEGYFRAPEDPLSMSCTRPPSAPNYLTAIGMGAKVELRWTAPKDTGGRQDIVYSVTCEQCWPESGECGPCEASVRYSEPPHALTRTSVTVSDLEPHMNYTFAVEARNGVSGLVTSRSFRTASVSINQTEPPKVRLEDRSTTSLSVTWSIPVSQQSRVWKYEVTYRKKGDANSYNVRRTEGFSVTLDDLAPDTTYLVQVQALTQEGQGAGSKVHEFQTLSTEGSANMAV

C[C@H](CCC(=O)O)[C@H]1CC[C@H]2[C@@H]3CC[C@@H]4C[C@H](O)CC[C@]4(C)[C@H]3CC[C@]12C [LCA, lithocholic acid] was tested, and the “reduction of EphA2-ephrinA1 binding (library screening)” value ([1]; 200 µM, incubated 1 hour) was “significantly reduce”, the “decrease of EphA2-ephrinA1 binding” value ([1]; bile acids, repeat of the 200 µM experiment) was 68.2%±4.3 and the Ki ([1]; corresponding to pKi, read-out: Ki (Schild plot)) was 49 µM. For the same molecule, the IC50 ([1]; read-out: IC50 displacement of biotinylated-ephrinA1-Fc from EphA2) was 57 µM, the “slope of Schild plot” value ([1]; saturation curves with increasing LCA, r^2 = 0.9664) was 0.8618 and the “displacement of ephrin-A1-Fc ectodomain from immobilized EphA-Fc ectodomains” value [2] was “dose-dependently displaced”. The “PC3 adhesion to ephrinA1-Fc” value ([3]; ephrinA1-Fc coated plates, increasing concentrations) was “dose-dependently inhibited”, the “aspecific PC3 cell adhesion” value ([3]; uncoated standard cell culture plates) was “neither ephrinA1-Fc nor LCA inhibited” and the “effect on EphA2 enzymatic activity” value [4] was “did not modify enzymatic activity”. The “effect on EGF-induced EGFR phosphorylation” value [5] was “completely inactive”, the “effect on IGFR1β activity as agonist or antagonist” value [6] was “failed to affect activity” and the “reversibility of binding (displacement with or without washing)” value [7] was “The displacement was detected only where the washing was not performed”.
